Source: patent US10364212B2 (F.I.S.—FABBRICA ITALIANA SINTETICI S.P.A., priority 2016, dated 2019)
Where “and” joins values, the source holds several entries; their conditions need not be identical. Identical values can stand only once. Entries after “also recorded” stand apart in the source; their conditions may differ.

What was measured:
Assay type in all cases: physicochemical
[1] = Kinetic solubility study in water, HPLC area of Enclomiphene peak;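 for HPLC a/a: suspension in 24 mL Water and the filtered mother liquor analysed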;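 for average HPLC a/a: suspension in 24 mL Water and the filtered mother liquor analysed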
Description: (§1) The filtered solid was analyzed by XRPD.
These HPLC conditions were used to perform solubility analysis.

[2] = Kinetic solubility study at pH 4.5 (acetic acid/sodium acetate buffer), HPLC area
Description: as §1
Solubility at a slightly acid medium was determined at pH 4.5 buffer used was a mixture acetic acid/sodium acetate prepared according to USP specifications. […]

[3] = Hygroscopicity by DVS (Dynamic Vapour Sorption); settings: for water uptake / moisture sorption: at 95% RH (0-95% RH); for hygroscopicity, comparison of batches 722 and 723: between 0 and 65% RH
Description: This is a gravimetric technique that measures how much water is absorbed or desorbed by a sample at different relative humidity (RH). At each RH, the sample mass must be allowed to reach gravimetric equilibrium (or surpassed time limit) before progressing to the next humidity level. Sorption and desorption isotherms will be performed at 25° C. over a range of 0-95% RH. The type of sorption isotherm is determined by the pore size and surface character of the material.

Structure (SMILES) | average HPLC a/a ([1]; 0 min) [a/a] | HPLC a/a ([1]; 0 min, replicate 1) [a/a] | HPLC a/a ([1]; 0 min, replicate 2) [a/a] | HPLC a/a ([1]; 0 min, replicate 3) [a/a] | average HPLC a/a ([1]; 15 min) [a/a] | HPLC a/a ([1]; 15 min, replicate 1) [a/a] | HPLC a/a ([1]; 15 min, replicate 2) [a/a] | HPLC a/a ([1]; 15 min, replicate 3) [a/a] | average HPLC a/a ([1]; 45 min) [a/a] | HPLC a/a ([1]; 45 min, replicate 1) [a/a] | HPLC a/a ([1]; 45 min, replicate 2) [a/a] | HPLC a/a ([1]; 45 min, replicate 3) [a/a] | average HPLC a/a ([1]; 90 min) [a/a] | HPLC a/a ([1]; 90 min, replicate 1) [a/a] | HPLC a/a ([1]; 90 min, replicate 2) [a/a] | HPLC a/a ([1]; 90 min, replicate 3) [a/a] | average HPLC a/a ([1]; 180 min) [a/a] | HPLC a/a ([1]; 180 min, replicate 1) [a/a] | HPLC a/a ([1]; 180 min, replicate 2) [a/a] | HPLC a/a ([1]; 180 min, replicate 3) [a/a] | other results
CCN(CC)CCOc1ccc(/C(=C(/Cl)c2ccccc2)c2ccccc2)cc1.O=C(O)CC(O)(CC(=O)O)C(=O)O [Enclomiphene citrate having needle crystals] [Ethanamine, 2-[4-[(1E)-2-chloro-1,2-diphenylethenyl]phenoxy]-N,N-diethyl-, 2-hydroxy-1,2,3-propanetricarboxylate (1:1)] | 0 | 0 | 0 | 0 | 5152 | 4099 | 6104 | 3273 | 4962 | 5206 | 5457 | 3225 | 5334 | 5085 | 5426 | 2988 | 4126 | 4120 | 5327 | 3208 | solubility in water compared with Enclomiphene citrate having non-needle shaped crystal habit ([1]; listed as Enclomiphene citrate having needle shaped crystal habit): almost double; also recorded: almost two times; Average a/a ([2]; pH 4.5, 0 min): 0 a/a; HPLC a/a ([2]; pH 4.5, 0 min, replicate 1): 0 a/a; HPLC a/a ([2]; pH 4.5, 0 min, replicate 2): 0 a/a; Average a/a ([2]; pH 4.5, 15 min): 4135 a/a; HPLC a/a ([2]; pH 4.5, 15 min, replicate 1): 3941 a/a; HPLC a/a ([2]; pH 4.5, 15 min, replicate 2): 4330 a/a; Average a/a ([2]; pH 4.5, 45 min): 4024 a/a; HPLC a/a ([2]; pH 4.5, 45 min, replicate 1): 3978 a/a; HPLC a/a ([2]; pH 4.5, 45 min, replicate 2): 4070 a/a; Average a/a ([2]; pH 4.5, 90 min): 5109 a/a; HPLC a/a ([2]; pH 4.5, 90 min, replicate 1): 4889 a/a; HPLC a/a ([2]; pH 4.5, 90 min, replicate 2): 5329 a/a; Average a/a ([2]; pH 4.5, 180 min): 5079 a/a; HPLC a/a ([2]; pH 4.5, 180 min, replicate 1): 5098 a/a; HPLC a/a ([2]; pH 4.5, 180 min, replicate 2): 5060 a/a; solubility at pH 4.5 compared with Enclomiphene citrate having non-needle crystals ([2]; pH 4.5 buffer, listed as Enclomiphene citrate having needle shaped crystal habit): four times higher; water uptake / moisture sorption ([3]; DVS, 25° C., listed as batch 723): 2.33 % weight and 2.3 % weight; hygroscopicity, comparison of batches 722 and 723 ([3]; DVS): identical
CCN(CC)CCOc1ccc(/C(=C(/Cl)c2ccccc2)c2ccccc2)cc1.O=C(O)CC(O)(CC(=O)O)C(=O)O [Enclomiphene citrate having non-needle crystals] [Ethanamine, 2-[4-[(1E)-2-chloro-1,2-diphenylethenyl]phenoxy]-N,N-diethyl-, 2-hydroxy-1,2,3-propanetricarboxylate (1:1), reference compound] | 0 | 0 | 0 | 0 | 2858 | 1819 | 3483 | 3273 | 3226 | 3083 | 3370 | 3225 | 2772 | 3229 | 2099 | 2988 | 3265 | 2991 | 3597 | 3208 | Average a/a ([2]; pH 4.5, 0 min): 0 a/a; HPLC a/a ([2]; pH 4.5, 0 min, replicate 1): 0 a/a; HPLC a/a ([2]; pH 4.5, 0 min, replicate 2): 0 a/a; Average a/a ([2]; pH 4.5, 15 min): 1185 a/a; HPLC a/a ([2]; pH 4.5, 15 min, replicate 1): 1294 a/a; HPLC a/a ([2]; pH 4.5, 15 min, replicate 2): 1077 a/a; Average a/a ([2]; pH 4.5, 45 min): 924 a/a; HPLC a/a ([2]; pH 4.5, 45 min, replicate 1): 907 a/a; HPLC a/a ([2]; pH 4.5, 45 min, replicate 2): 941 a/a; Average a/a ([2]; pH 4.5, 90 min): 1095 a/a; HPLC a/a ([2]; pH 4.5, 90 min, replicate 1): 1279 a/a; HPLC a/a ([2]; pH 4.5, 90 min, replicate 2): 912 a/a; Average a/a ([2]; pH 4.5, 180 min): 1052 a/a; HPLC a/a ([2]; pH 4.5, 180 min, replicate 1): 1008 a/a; HPLC a/a ([2]; pH 4.5, 180 min, replicate 2): 1096 a/a; water uptake / moisture sorption ([3]; DVS, 25° C., listed as batch 722): 6 % weight; moisture sorption ([3]; DVS, 25° C., between 0% and 65% RH): 2 % weight; hygroscopicity, comparison of batches 722 and 723 ([3]; DVS): identical; water absorption at high humidity ([3]; humidity higher than 65% RH (FIG. 9)): absorbs relevant amounts of water
